The values that follow come from paper PMC3898987 (Bioorganic & Medicinal Chemistry, 2013).

Numbering of substitutions follows the chain as printed.

Test [1] deals with T1, 5-HT3AB receptor, 5-HT3B subunit I183A (Homo sapiens, UniProt O95264+P46098, I176A).
T1 sequence (P46098 24-478): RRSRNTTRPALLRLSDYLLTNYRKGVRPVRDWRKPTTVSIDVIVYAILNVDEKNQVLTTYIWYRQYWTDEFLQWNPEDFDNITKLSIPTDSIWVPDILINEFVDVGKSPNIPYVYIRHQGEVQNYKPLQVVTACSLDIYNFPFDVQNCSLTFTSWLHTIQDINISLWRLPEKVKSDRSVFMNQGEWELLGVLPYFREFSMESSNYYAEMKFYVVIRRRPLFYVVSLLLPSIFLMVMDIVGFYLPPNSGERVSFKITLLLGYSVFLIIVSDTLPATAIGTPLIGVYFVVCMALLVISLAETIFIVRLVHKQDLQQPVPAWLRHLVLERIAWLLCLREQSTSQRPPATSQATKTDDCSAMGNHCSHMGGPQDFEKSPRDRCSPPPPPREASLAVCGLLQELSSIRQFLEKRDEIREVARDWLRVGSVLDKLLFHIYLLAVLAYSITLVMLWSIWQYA
T1 sequence (O95264 22-441 I176A): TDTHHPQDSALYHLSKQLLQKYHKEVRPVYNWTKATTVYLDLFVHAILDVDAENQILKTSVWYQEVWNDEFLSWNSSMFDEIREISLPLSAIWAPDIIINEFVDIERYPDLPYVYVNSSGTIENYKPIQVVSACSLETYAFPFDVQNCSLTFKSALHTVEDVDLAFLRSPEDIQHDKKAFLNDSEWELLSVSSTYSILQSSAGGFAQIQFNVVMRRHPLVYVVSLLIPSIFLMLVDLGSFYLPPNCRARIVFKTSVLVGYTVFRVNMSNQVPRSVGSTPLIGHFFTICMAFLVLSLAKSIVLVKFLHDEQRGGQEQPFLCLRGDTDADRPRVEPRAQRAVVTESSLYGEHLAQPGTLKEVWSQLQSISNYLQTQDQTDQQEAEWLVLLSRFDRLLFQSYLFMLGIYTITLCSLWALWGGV
The experiment in a line: radioligand saturation binding, transfected HEK293 membranes. To be noted: [3H]-palonosetron saturation, 5-HT3AB with 5-HT3B I183A, 4 °C, 24 h.
Procedure: (§1) Human embryonic kidney (HEK) 293 cells were cultured on 90 mm tissue culture plates at 37 °C and 7% CO2 in a humidified atmosphere. They were grown in DMEM:F12 (Dulbecco’s Modified Eagle’s Medium/Nutrient Mix F12 (1:1)) with GlutaMAX I™ containing 10% fetal calf serum and passaged when confluent. For radioligand binding studies, cells in 90 mm dishes were transfected at 60–70% confluency using polyethyleneimine and incubated for 3–4 days before use. For FlexStation assays, transfected cells were plated on 96-well plates and incubated 1–2 days before assay. […]
(§2) Eight-point binding assays were performed to produce saturation binding curves. […] Radioactive counts were measured using a Beckman LS6000SC liquid scintillation counter (Fullerton, California, USA).
(§3) Data were analyzed by iterative curve fitting using GraphPad Prism v5 (San Diego, CA) according to the following equation: B=Bmax[L]^n/kdn+[L]^n where B is the amount of bound radioligand, Bmax is the maximum specific binding at equilibrium, [L] is the concentration of radioligand, Kd is the equilibrium dissociation constant of the radioligand, and n is the Hill coefficient.

In the next test the target is T2, 5-HT3A receptor W90C (Homo sapiens, UniProt P46098, W85C).
T2 sequence (P46098 24-478 W85C): T1 sequence (P46098 24-478) with W62C
The description is as above. To be noted: [3H]-palonosetron saturation, 5-HT3A W90C, 4 °C, 24 h, NB = no binding.

The target in the next test is T3, 5-HT3A receptor Y73A (Homo sapiens, UniProt P46098, Y68A).
T3 sequence (P46098 24-478 Y68A): T1 sequence (P46098 24-478) with Y45A
The experiment in a line: FlexStation membrane potential dye functional assay, HEK293 cells. It counts as cell-based. The arrangement: expressed in transfected cells; host or cells: HEK293. To be noted: inhibition of 5-HT (EC50 concentration) response, 45 min preincubation, 5-HT3A Y73A.

The target in test [2] is T4, 5-HT3AB receptor, 5-HT3B subunit E170A (Homo sapiens, UniProt P46098).
T4 construct: variant as stated: E170A
T4 sequence (P46098 24-478): T1 sequence (P46098 24-478)
T4 sequence (O95264 22-441 partner): T1 sequence (O95264 22-441 I176A) with A155I
The experiment in a line: biochemical. It counts as binding. Conditions: [3H]-palonosetron saturation, 5-HT3AB with 5-HT3B E170A, 4 °C, 24 h.
Procedure: as §1, §2, §3

The target of test [3] is T1, 5-HT3AB receptor, 5-HT3B subunit I183A. Kind of test: cell-based.
Procedure: (§4) For FlexStation assays, transfected cells were plated on 96-well plates and incubated 1–2 days before assay.
(§5) Fluorometric studies were undertaken using a FlexStation® (Molecular Devices, Sunnyvale, CA, USA) as previously described.[11]
(§6) Fluorescence was measured every 2 s for 200 s. […] Concentration–response and inhibition curves were obtained for each mutant, and the fluorescence values were normalized to the maximal response.

Procedure for 5-HT3A receptor W90C: as §1, §2, §3
Procedure for 5-HT3A receptor Y73A: as §4, §5, §6

For the compound `O=C1c2cccc3c2[C@H](CCC3)CN1[C@@H]1CN2CCC1CC2` [Palonosetron], the Kd in test [1] is 0.23 ± 0.12 nM; at 5-HT3A receptor W90C it was more than 2 nM; at 5-HT3A receptor W90C (listed as [^3H]palonosetron), “no saturable, specific binding”; in test [2], 0.21 ± 0.03 nM. In addition, the figures for the IC50 (against 5-HT3A receptor Y73A; in test [3]) were 13.1 ± 1.6 nM and 0.34 ± 0.08 nM, respectively.
